According to patent US7749486B2 (Hoffmann-La Roche Inc., priority 2006, dated 2010):

How the values were obtained:
LOX-GFP cells = experiment: LOX-GFP peritoneal (ascites) model; assay type: in vivo, Nu/Nu mice
Protocol: Human melanoma LOX-GFP cells, prepared in accordance with the procedure of Example 3, were maintained in RPMI 1640 medium plus 10% FBS, and 1% Geneticin (G418).
Mice were euthanized, and then a small incision was made along the midline of the abdomen through the skin and peritoneum. A glass Pasteur pipet was utilized to aspirate and remove ascites fluid from the peritoneum, and the ascites was transferred to a 15 ml tube. 3 ml saline was used to rinse the peritoneal cavity, and all of the saline was recovered and transferred into the 15 ml tube containing the ascites fluid. The ascites cell suspension was filtered through a 40 μm nylon filter to obtain a single cell suspension and centrifuged at 1500 rpm for 10 min. The supernatant was removed, and the cell pellet was resuspended in 2 ml of fresh saline. 0.1 ml from each sample was transferred into a 96 well plate to evaluate cell number (reported as relative fluorescence units) utilizing an Acumen Explorer.

LOX-GFP-LM cells = experiment: LOX-GFP-LM experimental metastasis model (lung homogenate fluorescence and survival); assay type: in vivo, SCID beige mice; details: for TGI % At day 26 (tumor growth inhibition relative to Vehicle control group) / RFU (mean ± SD) of lung homogenate / ILS % (increased lifetime-span) / 50% survival days / TGI % At day 25 (tumor growth inhibition relative to Vehicle control group): bid
Protocol: Female SCID beige mice were injected iv via the tail vein with 2 million cells in a volume of 200 μl serum free RPMI1640, randomized into groups, and treated as shown in Tables 6 and 7 with a variety of doses and/or dose schedules. […] The remaining mice from each group were monitored for survival benefit until they were moribund.
Two parameters were assessed for quantitative evaluation of anti-metastatic efficacy: 1) Fluorescence intensity of lung homogenates and 2) Survival.
5 mice per treatment group were removed from the study at Day 25 or 26 for evaluation of lung metastatic tumor burden. Mice were euthanized, and lungs were removed, placed in 3 ml saline, and homogenized. 0.2 ml of lung homogenate was transferred to a 96 well plate, and fluorescence was read using Acumen Explorer. […] Fluorescence was reported in relative fluorescence units (RFU). […] Statistical analysis was determined by Student-test or Mann-Whitney U test, and statistic differences between groups were considered to be significant when the probability value (p) was ≦0.05.
Survival represented overall metastatic status either due to lung metastasis or metastasis to other organs. Moribundity due to labored breathing or hind limb paralysis was monitored and recorded as the surrogate endpoint for survival. For survival assessment, results were plotted as the percentage survival against days after tumor implant. The Increased lifetime-span (% ILS) was calculated as: ILS %=100×[(median survival day of treated group−median survival day of control group)/median survival day of control group]. Median survival or (50% survival time) was determined utilizing Kaplan Meier survival analysis. […] Differences in survival were analyzed by the log-rank test. Statistic differences between groups were considered to be significant when the probability value (p) was ≦0.05.

[1] = 25, 50, 100 mg/kg po bid, 6 doses (Days 4, 5 & 6), ascites harvest Day 7

SMILES: COc1ccc(C2=N[C@@H](c3ccc(Cl)cc3)[C@@H](c3ccc(Cl)cc3)N2C(=O)N2CCNC(=O)C2)c(OC(C)C)c1 (stereo in doubt) [Compound D, 4-[(4S,5R)-4,5-Bis-(4-chloro-phenyl)-2-(2-isopropoxy-4-methoxy-phenyl)-4,5-dihydro-imidazole-1-carbonyl]-piperazin-2-one]
- LOX-GFP ascites growth (LOX-GFP cells; [1]): inhibited LOX-GFP ascites growth at several doses
- dose dependence of LOX-GFP ascites growth inhibition (LOX-GFP cells; [1]): not dose-dependent
- TGI % At day 26 (tumor growth inhibition relative to Vehicle control group) (LOX-GFP-LM cells; 200 mg/kg po, Day 3-21): 96.2%
- RFU (mean ± SD) of lung homogenate (LOX-GFP-LM cells; 200 mg/kg po, Day 3-21, lungs at day 26): 2359191 ± 526586 RFU
- ILS % (increased lifetime-span) (LOX-GFP-LM cells; 200 mg/kg po, Day 3-d21): 29%
- 50% survival days (LOX-GFP-LM cells; 200 mg/kg po, Day 3-d21, Vehicle 28 days): 36 days
- TGI % At day 26 (tumor growth inhibition relative to Vehicle control group) (LOX-GFP-LM cells; 200 mg/kg po, Day −1-7): 66.0%
- RFU (mean ± SD) of lung homogenate (LOX-GFP-LM cells; 200 mg/kg po, Day −1-7, lungs at day 26): 21092887 ± 10460489 RFU
- TGI % At day 26 (tumor growth inhibition relative to Vehicle control group) (LOX-GFP-LM cells; 200 mg/kg po, Day −1-21): 78.7%
- RFU (mean ± SD) of lung homogenate (LOX-GFP-LM cells; 200 mg/kg po, Day −1-21, lungs at day 26): 13230372 ± 11960417 RFU
- ILS % (increased lifetime-span) (LOX-GFP-LM cells; 200 mg/kg po, Day −1-d7): 0%
- 50% survival days (LOX-GFP-LM cells; 200 mg/kg po, Day −1-d7, Vehicle 28 days): 28 days
- ILS % (increased lifetime-span) (LOX-GFP-LM cells; 200 mg/kg po, Day −1-d21): 10.7%
- 50% survival days (LOX-GFP-LM cells; 200 mg/kg po, Day −1-d21, Vehicle 28 days): 31 days
- anti-metastatic activity as assessed by fluorescence intensity of lung homogenates (LOX-GFP-LM cells; late intervention (Dosed Day 3 through 23) as compared to Vehicle): superior anti-metastatic activity

SMILES: COc1ccc(F)c(F)c1C(=O)c1cnc(NC2CCN(S(C)(=O)=O)CC2)nc1N [Compound A, [4-Amino-2-(1-methanesulfonyl-piperidin-4-ylamino)-pyrimidin-5-yl]-(2,3-difluoro-6-methoxy-phenyl)-methanone]
- LOX-GFP ascites cell growth (LOX-GFP cells; Compound A 40 mg/kg po, 2 doses (Days 5 & 6), ascites harvest Day 7): reduced cell growth
- LOX-GFP ascites cell growth (LOX-GFP cells; Compound A 40 mg/kg po, 3 doses (Days 4, 5 & 6), ascites harvest Day 7): reduced cell growth maximally
- LOX-GFP ascites cell growth (LOX-GFP cells; Compound A 40 mg/kg po, single dose (Day 6), ascites harvest Day 7): did not inhibit cell growth

SMILES: COc1ccc(C2=NC(c3ccc(Cl)cc3)C(c3ccc(Cl)cc3)N2C(=O)N2CCNC(=O)C2)c(OC(C)C)c1 (stereo not drawn) [Compound B, 4-[4,5-Bis-(4-chloro-phenyl)-2-(2-isopropoxy-4-methoxy-phenyl)-4,5-dihydro-imidazole-1-carbonyl]-piperazin-2-one]
- LOX-GFP ascites growth (LOX-GFP cells; 40 mg/kg sc, 6 doses, ascites harvest Day 8): demonstrated inhibitory effects on LOX-GFP ascites growth

SMILES: CCOc1ccnc2ccc(/C=C3\SC(N[C@@H](CO)c4ccccc4)=NC3=O)cc12 [Compound C, 5-(4-Ethoxy-quinolin-6-ylmeth-(Z)-ylidine)-2-(2-hydroxy-1-(R)-phenyl-ethylamino)-thiazol-4-one]
- LOX-GFP ascites growth (LOX-GFP cells; 200 mg/kg po bid, 12 doses, ascites harvest Day 8): demonstrated inhibitory effects on LOX-GFP ascites growth

SMILES: Cc1[nH]nc2c1N=C(c1ccccc1Cl)c1cc(N)ccc1N2 [Compound E]
- TGI % At day 25 (tumor growth inhibition relative to Vehicle control group) (LOX-GFP-LM cells; 5 mg/kg po, Day 3-23): 82.3%
- RFU (mean ± SD) of lung homogenate (LOX-GFP-LM cells; 5 mg/kg po, Day 3-23, lungs at day 25): 8618508 ± 3198528 RFU
- ILS % (increased lifetime-span) (LOX-GFP-LM cells; 5 mg/kg po, Day 3-d23): 16.7%
- 50% survival days (LOX-GFP-LM cells; 5 mg/kg po, Day 3-d23, Vehicle 24 days): 28 days
- TGI % At day 25 (tumor growth inhibition relative to Vehicle control group) (LOX-GFP-LM cells; 5 mg/kg po, Day −1-7): −5.9%
- RFU (mean ± SD) of lung homogenate (LOX-GFP-LM cells; 5 mg/kg po, Day −1-7, lungs at day 25): 51670506 ± 29321586 RFU
- TGI % At day 25 (tumor growth inhibition relative to Vehicle control group) (LOX-GFP-LM cells; 5 mg/kg po, Day −1-23): 73.9%
- RFU (mean ± SD) of lung homogenate (LOX-GFP-LM cells; 5 mg/kg po, Day −1-23, lungs at day 25): 12738540 ± 5426672 RFU
- ILS % (increased lifetime-span) (LOX-GFP-LM cells; 5 mg/kg po, Day −1-d7): 4.2%
- 50% survival days (LOX-GFP-LM cells; 5 mg/kg po, Day −1-d7, Vehicle 24 days): 25 days
- ILS % (increased lifetime-span) (LOX-GFP-LM cells; 5 mg/kg po, Day −1-d23): 16.7%
- 50% survival days (LOX-GFP-LM cells; 5 mg/kg po, Day −1-d23, Vehicle 24 days): 28 days
- anti-metastatic activity as assessed by fluorescence intensity of lung homogenates (LOX-GFP-LM cells; late intervention (Dosed Day 3 through 23) vs full length intervention (Day −1 through 23)): equivalent anti-metastatic activity

SMILES: CC(=O)O[C@H]1C(=O)[C@@]2(C)[C@H]([C@H](OC(=O)c3ccccc3)[C@]3(O)C[C@H](OC(=O)[C@H](O)[C@@H](NC(=O)c4ccccc4)c4ccccc4)C(C)=C1C3(C)C)[C@]1(OC(C)=O)CO[C@@H]1C[C@@H]2O [Taxol, reference compound]
- LOX-GFP ascites cell growth (LOX-GFP cells; Taxol 10 mg/kg iv, 2 doses (Days 5 & 6), ascites harvest Day 7): reduced cell growth
- LOX-GFP ascites cell growth (LOX-GFP cells; Taxol 10 mg/kg iv, 3 doses (Days 4, 5 & 6), ascites harvest Day 7): reduced cell growth maximally
- LOX-GFP ascites cell growth (LOX-GFP cells; Taxol 10 mg/kg iv, single dose (Day 6), ascites harvest Day 7): did not inhibit cell growth
